In patent publication US20220242870A1, “HETEROCYCLE-FUSED PYRIMIDINE DERIVATIVE AND USE THEREOF” (VORONOI Inc., priority 2019, published 2022):

Columns and labels:
human GST-HPK1 (1-346) = target: T1, human GST-HPK1 (1-346) (Homo sapiens, UniProt Q92918); experiment: HPK1 enzyme inhibitory ability (ADP-Glo kinase assay); assay type: biochemical; conditions: human GST-HPK1 3 ng, ATP 3 uM, 25° C. 2 hours
T1 construct: purified human GST-HPK1 (1-346, Signalchem) enzyme; purchased Signalchem
T1 sequence (Q92918 1-346): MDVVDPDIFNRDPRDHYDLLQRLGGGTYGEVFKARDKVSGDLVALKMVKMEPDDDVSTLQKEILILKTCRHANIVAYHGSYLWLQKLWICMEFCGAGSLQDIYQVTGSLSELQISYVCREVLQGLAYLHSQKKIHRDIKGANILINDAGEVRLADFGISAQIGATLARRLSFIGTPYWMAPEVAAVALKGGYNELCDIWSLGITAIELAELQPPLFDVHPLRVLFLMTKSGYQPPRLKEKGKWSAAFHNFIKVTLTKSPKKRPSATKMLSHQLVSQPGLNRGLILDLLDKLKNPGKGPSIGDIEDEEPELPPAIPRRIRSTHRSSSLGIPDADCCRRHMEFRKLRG
Procedure, shortened: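 Human GST-HPK1(1-346), 3 ng, reacted with 3 uM ATP and specific substrate in 40 mM Tris-HCl pH 7.4, 20 mM MgCl2, 0.5 mg/mL BSA, 50 uM DTT for 2 h at 25° C. ADP-Glo luminescence read; IC50 (nM) relative to untreated solvent control.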

MCF-7 cells = experiment: Breast cancer cell line proliferation inhibitory activity (CellTiter-Glo 2.0); assay type: cell-based; conditions: Homo sapiens, MCF7, 120 hours
Procedure, shortened: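 MCF-7 cells exposed to a 12-point, 3-fold dilution series (final 0.00005–10 μM) for 120 h at 37 °C. Viability read by CellTiter-Glo 2.0 luminescence, expressed as percent of vehicle-treated cells. GI50 (nM) derived from the curves.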

human FLT3-ITD enzyme = target: T2, human FLT3-ITD enzyme (Homo sapiens, UniProt P36888); experiment: FLT3 enzyme inhibitory ability (ADP-Glo kinase assay); assay type: biochemical; conditions: human FLT3-ITD enzyme 10 ng, ATP 10 μM, 25° C. 1 hour
T2 sequence (P36888 1-993): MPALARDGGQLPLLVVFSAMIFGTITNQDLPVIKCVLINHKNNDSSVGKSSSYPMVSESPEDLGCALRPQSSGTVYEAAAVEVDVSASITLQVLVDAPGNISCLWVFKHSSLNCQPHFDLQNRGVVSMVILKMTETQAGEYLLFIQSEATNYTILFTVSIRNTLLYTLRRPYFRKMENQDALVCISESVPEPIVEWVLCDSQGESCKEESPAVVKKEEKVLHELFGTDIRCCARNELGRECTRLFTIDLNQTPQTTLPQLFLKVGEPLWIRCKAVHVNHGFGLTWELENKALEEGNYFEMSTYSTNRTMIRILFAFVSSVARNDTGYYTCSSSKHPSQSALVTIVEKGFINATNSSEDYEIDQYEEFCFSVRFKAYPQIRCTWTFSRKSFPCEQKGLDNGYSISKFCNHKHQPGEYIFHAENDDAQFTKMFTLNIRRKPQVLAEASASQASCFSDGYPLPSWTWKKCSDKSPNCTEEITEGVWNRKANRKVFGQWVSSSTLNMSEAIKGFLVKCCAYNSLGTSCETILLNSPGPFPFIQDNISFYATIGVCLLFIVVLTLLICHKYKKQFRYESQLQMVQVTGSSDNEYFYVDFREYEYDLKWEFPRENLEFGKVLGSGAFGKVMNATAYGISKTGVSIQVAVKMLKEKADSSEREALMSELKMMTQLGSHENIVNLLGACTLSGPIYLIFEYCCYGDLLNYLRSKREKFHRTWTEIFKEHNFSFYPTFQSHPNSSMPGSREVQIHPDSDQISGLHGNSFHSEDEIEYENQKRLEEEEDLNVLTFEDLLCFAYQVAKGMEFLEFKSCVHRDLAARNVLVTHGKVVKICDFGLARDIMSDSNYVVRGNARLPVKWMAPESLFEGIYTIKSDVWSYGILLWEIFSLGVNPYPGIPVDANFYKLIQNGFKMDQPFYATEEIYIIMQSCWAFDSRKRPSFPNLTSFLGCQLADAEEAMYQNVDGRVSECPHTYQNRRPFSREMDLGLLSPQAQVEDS
Procedure, shortened: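 Purified human FLT3-ITD (10 ng) with 10 μM ATP and specific substrate in 40 mM Tris-HCl pH 7.4, 20 mM MgCl2, 0.5 mg/mL BSA, 50 μM DTT, 1 h at 25 °C. ADP formation read by ADP-Glo luminescence; IC50 (nM) versus solvent-treated control.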

RS4;11 cells = experiment: AML cell proliferation inhibitory activity (CellTiter-Glo); assay type: cell-based; conditions: Homo sapiens, 72 hours
Procedure, shortened: (§1)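 RS4;11 and MV4-11 cells in RPMI-1640 with 10% FBS, seeded 24 h before treatment, then exposed 72 h to 12 three-fold dilutions (0.3 nM–50 μM final). Viability by CellTiter-Glo luminescence relative to solvent control; GI50 from triplicate experiments.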

MV4-11 cells = experiment: as above; assay type: cell-based; conditions: Homo sapiens, 72 hours
Procedure, shortened: as §1

Compound	IC50 (human GST-HPK1 (1-346))	GI50 (MCF-7 cells)	IC50 (human FLT3-ITD enzyme)	GI50 (RS4;11 cells)	GI50 (MV4-11 cells)
CCN1CCN(C2CCN(c3ccc(Nc4nc(N5N=CCC5c5ccccc5)c5sccc5n4)cc3)CC2)CC1 (centres unmarked) [Example 37, N-(4-(4-(4-ethylpiperazin-1-yl)piperidin-1-yl)phenyl)-4-(5-phenyl-4,5-dihydro-1H-pyrazol-1-yl)thieno[3,2-d]pyrimidin-2-amine]	> 500 nM	> 500 nM	250 to 500 nM	> 500 nM	≥ 250 nM
CN1CCN(c2ccc(Nc3nc(N4N=CCC4c4cccnc4)c4sccc4n3)cc2)CC1 (centres unmarked) [Example 34, N-(4-(4-methylpiperazin-1-yl)phenyl)-4-(5-(pyridin-3-yl)-4,5-dihydro-1H-pyrazol-1-yl)thieno[3,2-d]pyrimidin-2-amine]	> 500 nM	> 500 nM	> 500 nM	> 500 nM	> 500 nM
CN(C)CCCn1cc(Nc2nc(N3N=CCC3c3ccccc3)c3sccc3n2)cn1 (centres unmarked) [Example 26, N-(1-(3-(dimethylamino)propyl)-1H-pyrazol-4-yl)-4-(5-phenyl-4,5-dihydro-1H-pyrazol-1-yl)thieno[3,2-d]pyrimidin-2-amine]	> 500 nM	> 500 nM	> 500 nM	> 500 nM	> 500 nM
CN1CCN(c2ccc(Nc3nc(N4N=CCC4c4ccncc4)c4sccc4n3)cc2)CC1 (centres unmarked) [Example 35, N-(4-(4-methylpiperazin-1-yl)phenyl)-4-(5-(pyridin-4-yl)-4,5-dihydro-1H-pyrazol-1-yl)thieno[3,2-d]pyrimidin-2-amine]	> 500 nM	> 500 nM	> 500 nM	> 500 nM	250 to 500 nM
CN1CCN(c2ccc(Nc3nc(N4N=CCC4c4ccc5ccccc5c4)c4sccc4n3)cc2)CC1 (centres unmarked) [Example 31, N-(4-(4-methylpiperazin-1-yl)phenyl)-4-(5-(naphthalen-2-yl)-4,5-dihydro-1H-pyrazol-1-yl)thieno[3,2-d]pyrimidin-2-amine]	> 500 nM	> 500 nM	> 500 nM	> 500 nM	> 500 nM
CN1CCN(c2ccc(Nc3nc(N4N=CCC4C4CCCCC4)c4sccc4n3)cc2)CC1 (centres unmarked) [Example 30, 4-(5-cyclohexyl-4,5-dihydro-1H-pyrazol-1-yl)-N-(4-(4-methylpiperazin-1-yl)phenyl)thieno[3,2-d]pyrimidin-2-amine]	> 500 nM	> 500 nM	> 500 nM	≥ 250 nM	250 to 500 nM

Next, values leading:

IC50 (human GST-HPK1 (1-346))	GI50 (MCF-7 cells)	IC50 (human FLT3-ITD enzyme)	GI50 (RS4;11 cells)	GI50 (MV4-11 cells)	Compound
≥ 250 nM	> 500 nM	≥ 250 nM	≥ 250 nM	≥ 250 nM	CN1CCN(C2CCN(c3ccc(Nc4nc(N5OCC[C@H]5c5ccccc5)c5cc[nH]c5n4)cc3)CC2)CC1 [Example 84, (S)-N-(4-(4-(4-methylpiperazin-1-yl)piperidin-1-yl)phenyl)-4-(3-phenylisoxazolidin-2-yl)-7H-pyrrolo[2,3-d]pyrimidin-2-amine]
> 500 nM	> 500 nM	250 to 500 nM	> 500 nM	250 to 500 nM	CCN(CC)CCOc1ccc(Nc2nc(N3N=CCC3c3ccccc3)c3sccc3n2)cc1 (centres unmarked) [Example 45, N-(4-(2-(diethylamino)ethoxy)phenyl)-4-(5-phenyl-4,5-dihydro-1H-pyrazol-1-yl)thieno[3,2-d]pyrimidin-2-amine]
> 500 nM	> 500 nM	250 to 500 nM	> 500 nM	≥ 250 nM	CN(C)[C@@H]1CCN(c2ccc(Nc3nc(N4N=CCC4c4ccccc4)c4sccc4n3)cc2)C1 (stereo partly drawn) [Example 43, N-(4-((R)-3-(dimethylamino)pyrrolidin-1-yl)phenyl)-4-(5-phenyl-4,5-dihydro-1H-pyrazol-1-yl)thieno[3,2-d]pyrimidin-2-amine]
> 500 nM	> 500 nM	> 500 nM	> 500 nM	≥ 250 nM	CN(C)[C@H]1CCN(c2ccc(Nc3nc(N4N=CCC4c4ccccc4)c4sccc4n3)cc2)C1 (stereo partly drawn) [Example 44, N-(4-((S)-3-(dimethylamino)pyrrolidin-1-yl)phenyl)-4-(5-phenyl-4,5-dihydro-1H-pyrazol-1-yl)thieno[3,2-d]pyrimidin-2-amine]
